Results: PubChem BioAssay (NCI)
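All cell lines were grown in 96-well plates and treated with compound for 48 hours. GI50 = concentration required for 50% inhibition of growth. TGI marks complete inhibition of growth.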

Tests used:
Experiment in all cases: DTP human tumour cell line panel, 48 h
NCI-H23 lung = tested on: NCI-H23 lung
HT29 colon = tested on: HT29 colon
UO-31 renal = tested on: UO-31 renal
SNB-75 CNS = tested on: SNB-75 CNS
HS 578T breast = tested on: HS 578T breast
UACC-62 melanoma = tested on: UACC-62 melanoma
BT-549 breast = tested on: BT-549 breast
NCI-H460 lung = tested on: NCI-H460 lung
SF-295 CNS = tested on: SF-295 CNS
ACHN renal = tested on: ACHN renal
SNB-19 CNS = tested on: SNB-19 CNS
HCT-15 colon = tested on: HCT-15 colon
SR leukemia = tested on: SR leukemia
OVCAR-4 ovarian = tested on: OVCAR-4 ovarian
LOX IMVI melanoma = tested on: LOX IMVI melanoma
DU-145 prostate = tested on: DU-145 prostate
T-47D breast = tested on: T-47D breast
A549 NSCLC = tested on: A549 NSCLC
SK-OV-3 ovarian = tested on: SK-OV-3 ovarian
RXF 393 renal = tested on: RXF 393 renal
K-562 leukemia = tested on: K-562 leukemia
SK-MEL-2 melanoma = tested on: SK-MEL-2 melanoma
SK-MEL-5 melanoma = tested on: SK-MEL-5 melanoma
COLO 205 colon = tested on: COLO 205 colon
SF-539 CNS = tested on: SF-539 CNS
786-0 renal = tested on: 786-0 renal
MOLT-4 leukemia = tested on: MOLT-4 leukemia
MCF7 breast = tested on: MCF7 breast
UACC-257 melanoma = tested on: UACC-257 melanoma
SN12C renal = tested on: SN12C renal
RPMI-8226 leukemia = tested on: RPMI-8226 leukemia
M14 melanoma = tested on: M14 melanoma
OVCAR-5 ovarian = tested on: OVCAR-5 ovarian
TK-10 renal = tested on: TK-10 renal
SK-MEL-28 melanoma = tested on: SK-MEL-28 melanoma
MALME-3M melanoma = tested on: MALME-3M melanoma
CCRF-CEM leukemia = tested on: CCRF-CEM leukemia
HL-60(TB) leukemia = tested on: HL-60(TB) leukemia
OVCAR-3 ovarian = tested on: OVCAR-3 ovarian
SF-268 CNS = tested on: SF-268 CNS
CAKI-1 renal = tested on: CAKI-1 renal
MDA-MB-231 breast = tested on: MDA-MB-231 breast
EKVX NSCLC = tested on: EKVX NSCLC
SW-620 colon = tested on: SW-620 colon
NCI-H226 lung = tested on: NCI-H226 lung
PC-3 prostate = tested on: PC-3 prostate
KM12 colon = tested on: KM12 colon
NCI/ADR-RES ovarian = tested on: NCI/ADR-RES ovarian
A498 renal = tested on: A498 renal
HCC-2998 colon = tested on: HCC-2998 colon
HOP-62 NSCLC = tested on: HOP-62 NSCLC
HCT-116 colon = tested on: HCT-116 colon
MDA-MB-435 = tested on: MDA-MB-435
IGROV1 ovarian = tested on: IGROV1 ovarian
HOP-92 NSCLC = tested on: HOP-92 NSCLC
NCI-H522 lung = tested on: NCI-H522 lung
U251 CNS = tested on: U251 CNS

COC1=C(OC)C(=O)C(CCCCCCCCCC[P+](c2ccccc2)(c2ccccc2)c2ccccc2)=C(C)C1=O
GI50 (NCI-H23 lung): 160 nM | TGI (NCI-H23 lung): 930 nM | GI50 (HT29 colon): 194 nM | TGI (HT29 colon): 1050 nM | GI50 (UO-31 renal): 1670 nM | TGI (UO-31 renal): 3430 nM | GI50 (SNB-75 CNS): 211 nM | TGI (SNB-75 CNS): 925 nM | GI50 (HS 578T breast): 204 nM | TGI (HS 578T breast): 1620 nM | GI50 (UACC-62 melanoma): 312 nM | TGI (UACC-62 melanoma): 1730 nM | GI50 (BT-549 breast): 249 nM | TGI (BT-549 breast): 1090 nM | GI50 (NCI-H460 lung): 266 nM | TGI (NCI-H460 lung): 1160 nM | GI50 (SF-295 CNS): 189 nM | TGI (SF-295 CNS): 585 nM | GI50 (ACHN renal): 1070 nM | TGI (ACHN renal): 3720 nM | GI50 (SNB-19 CNS): 125 nM | TGI (SNB-19 CNS): 1300 nM | GI50 (HCT-15 colon): 1330 nM | TGI (HCT-15 colon): 3460 nM | GI50 (SR leukemia): > 100000 nM | TGI (SR leukemia): > 100000 nM | GI50 (OVCAR-4 ovarian): 166 nM | TGI (OVCAR-4 ovarian): 2860 nM | GI50 (LOX IMVI melanoma): 299 nM | TGI (LOX IMVI melanoma): 1550 nM | GI50 (DU-145 prostate): 351 nM | TGI (DU-145 prostate): 1730 nM | GI50 (T-47D breast): 48.1 nM | TGI (T-47D breast): 1040 nM | GI50 (A549 NSCLC): 337 nM | TGI (A549 NSCLC): 5140 nM | GI50 (SK-OV-3 ovarian): 255 nM | TGI (SK-OV-3 ovarian): 869 nM | GI50 (RXF 393 renal): 293 nM | TGI (RXF 393 renal): 10700 nM | GI50 (K-562 leukemia): 244 nM | GI50 (SK-MEL-2 melanoma): 744 nM | TGI (SK-MEL-2 melanoma): 3510 nM | GI50 (SK-MEL-5 melanoma): 71.3 nM | TGI (SK-MEL-5 melanoma): 222 nM | GI50 (COLO 205 colon): 99.9 nM | TGI (COLO 205 colon): 279 nM | GI50 (SF-539 CNS): 256 nM | TGI (SF-539 CNS): 1280 nM | GI50 (786-0 renal): 269 nM | TGI (786-0 renal): 530 nM | GI50 (MOLT-4 leukemia): 376 nM | TGI (MOLT-4 leukemia): 7780 nM | GI50 (MCF7 breast): 42 nM | TGI (MCF7 breast): 532 nM | GI50 (UACC-257 melanoma): 150 nM | TGI (UACC-257 melanoma): 931 nM | GI50 (SN12C renal): 213 nM | TGI (SN12C renal): 1320 nM | GI50 (RPMI-8226 leukemia): 24.7 nM | TGI (RPMI-8226 leukemia): 143 nM | GI50 (M14 melanoma): 366 nM | TGI (M14 melanoma): 1700 nM | GI50 (OVCAR-5 ovarian): 361 nM | TGI (OVCAR-5 ovarian): 1410 nM | GI50 (TK-10 renal): 303 nM | TGI (TK-10 renal): 1380 nM | GI50 (SK-MEL-28 melanoma): 475 nM | TGI (SK-MEL-28 melanoma): 2170 nM | GI50 (MALME-3M melanoma): 206 nM | TGI (MALME-3M melanoma): 908 nM | GI50 (CCRF-CEM leukemia): 107 nM | TGI (CCRF-CEM leukemia): 1180 nM | GI50 (HL-60(TB) leukemia): 59.8 nM | TGI (HL-60(TB) leukemia): 409 nM | GI50 (OVCAR-3 ovarian): 219 nM | TGI (OVCAR-3 ovarian): 1100 nM | GI50 (SF-268 CNS): 345 nM | TGI (SF-268 CNS): 1440 nM | GI50 (CAKI-1 renal): 853 nM | TGI (CAKI-1 renal): 3270 nM | GI50 (MDA-MB-231 breast): 265 nM | TGI (MDA-MB-231 breast): 1480 nM | GI50 (EKVX NSCLC): 137 nM | TGI (EKVX NSCLC): 4740 nM | GI50 (SW-620 colon): 334 nM | TGI (SW-620 colon): 4910 nM | GI50 (NCI-H226 lung): 284 nM | TGI (NCI-H226 lung): 915 nM | GI50 (PC-3 prostate): 130 nM | TGI (PC-3 prostate): 4040 nM | GI50 (KM12 colon): 145 nM | TGI (KM12 colon): 884 nM | GI50 (NCI/ADR-RES ovarian): 3130 nM | TGI (NCI/ADR-RES ovarian): 20300 nM | GI50 (A498 renal): 371 nM | TGI (A498 renal): 1790 nM | GI50 (HCC-2998 colon): 247 nM | TGI (HCC-2998 colon): 1380 nM | GI50 (HOP-62 NSCLC): 194 nM | TGI (HOP-62 NSCLC): 491 nM | GI50 (HCT-116 colon): 135 nM | TGI (HCT-116 colon): 329 nM | GI50 (MDA-MB-435): 193 nM | TGI (MDA-MB-435): 1280 nM | GI50 (IGROV1 ovarian): 187 nM | TGI (IGROV1 ovarian): 1870 nM | GI50 (HOP-92 NSCLC): 97.7 nM | TGI (HOP-92 NSCLC): 504 nM | GI50 (NCI-H522 lung): 170 nM | TGI (NCI-H522 lung): 795 nM | GI50 (U251 CNS): 104 nM | TGI (U251 CNS): 1170 nM
